Source: PMC3101181, “Crystal Structures of T. b. rhodesiense Adenosine Kinase Complexed with Inhibitor and Activator: Implications for Catalysis and Hyperactivation” (PLoS Neglected Tropical Diseases, 2011)
Entries after “also recorded” stand apart in the source; their conditions may differ. Like-named read-outs stand apart in the source and are kept apart here.

Key:
[1] = target: TbrAK (adenosine kinase of T. b. rhodesiense) (Trypanosoma brucei rhodesiense, UniProt Q584S0); test: TbrAK activity assay (HPLC, ADP/ATP ratio); assay type: biochemical; conditions: n.e. = no effect; for EC50 / potency EC50 (TbrAK activation): compound range 1–2000 µM, average of three experiments, neither activator nor inhibitor; for EC50: read-out: potency EC50 (TbrAK activation); for efficacy increase (TbrAK activation): efficacy of TbrAK in absence of compound taken as reference
TbrAK (adenosine kinase of T. b. rhodesiense), sequence (Q584S0 entry or part of it): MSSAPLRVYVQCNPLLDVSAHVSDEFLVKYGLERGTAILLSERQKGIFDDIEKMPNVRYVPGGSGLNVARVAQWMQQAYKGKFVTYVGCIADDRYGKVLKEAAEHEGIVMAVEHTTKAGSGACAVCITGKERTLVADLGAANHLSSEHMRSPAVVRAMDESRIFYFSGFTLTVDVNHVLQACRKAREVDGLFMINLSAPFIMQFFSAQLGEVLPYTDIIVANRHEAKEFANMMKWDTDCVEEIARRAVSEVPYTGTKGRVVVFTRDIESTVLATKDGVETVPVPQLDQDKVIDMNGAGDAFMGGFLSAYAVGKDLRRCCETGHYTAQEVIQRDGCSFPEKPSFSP
Description: The activation potential of a series of compound 1 derivatives (compounds 2–7) was measured using a recently developed HPLC method. The resulting ADP/ATP ratios were calculated and used as a measure of activity. For comparative reasons the activity recorded in absence of compound was set to 100%. The mean of three independent measurements is reported.

[2] = target: T1, TbrAK (Trypanosoma brucei rhodesiense, UniProt Q584S0); test: Isothermal titration calorimetry (ITC); assay type: binding
T1 sequence (Q584S0 entry or part of it): as above
Description: Binding affinity constants for adenosine and ATP were determined using isothermal titration calorimetry (ITC). To this end, TbrAK was dialyzed into a buffer consisting of 20 mM Tris, 150 mM NaCl, and 5% glycerol (pH 7.5) and used at concentrations around 90 µM. The ligands were dissolved directly into the dialysis buffer to give a final concentration of around 2 mM. All solutions were filtered and thoroughly degassed before use. A typical titration experiment consisted of a first control injection of 1 µl followed by 50 to 60 injections, each of 5 µl (20 s duration), using a 4 min interval. Raw data were collected, corrected for ligand heats of dilution, integrated and fitted to the appropriate binding model using the Microcal Origin software supplied with the instrument. The measurements were performed in duplicate.

[3] = target: T1, TbrAK; test: Thermal stability assay (thermal unfolding by CD spectroscopy); assay type: binding; conditions: for Tm ± SD: TbrAK 13 µM, apo TbrAK 43.1±0.4, average of three experiments; for increase of TbrAK melting point when compound 1 was added: 50 µM
Description: Thermal unfolding of TbrAK was studied by CD spectroscopy as outlined elsewhere. […] TbrAK in a buffer containing 20 mM Hepes and 150 mM NaCl (pH 7.0) was kept constant at a final concentration of 0.5 mg/ml (13 µM). […] For evaluation of the CD spectra, the buffer spectrum was subtracted from the protein CD spectrum. All thermal unfolding curves were fitted to a two-state model that had been published recently. The mean of three independent experiments is reported.

[4] = test system: Trypanosoma brucei rhodesiense; parameters: method as in PMID 19707572, PMID 17949068; conditions: read-out: IC50 towards Trypanosoma brucei rhodesiense; cited from earlier work
[5] = target: T1, TbrAK; conditions: ITC; cited from earlier work
[6] = parameters: method as in PMID 19707572, PMID 17949068; conditions: cited from earlier work
[7] = AP5A, adenosine, ATP at 500 µM, compound 1 at 50 µM

SMILES | EC50 [1] | efficacy increase (TbrAK activation) [1] | Tm ± SD [3, 7] | further results
Clc1ccc(-c2cc(N3CCOCC3)[nH]n2)cc1 [compound 4, 4-[5-(4-chlorophenyl)-2H-pyrazol-3-yl]morpholine] | 135 µM | 2.0 fold |  | 
c1ccc(Oc2ccc(-c3cc(CN4CCOCC4)[nH]n3)cc2)cc1 [compound 5, 4-[5-(4-phenoxyphenyl)-2H-pyrazol-3-ylmethyl]morpholine] | 195 µM | 1.5 fold |  | 
Nc1ncnc2c1ncn2[C@@H]1O[C@H](CO)[C@@H](O)[C@H]1O [adenosine] |  |  | 50.7±0.2 °C | Kd [2]: 1.3 ± 0.3 µM; n (molar ratio, single site) ([2]; in presence of compound 1 (150 µM)): 0.9±0.1; ΔHbind, single binding site ([2]; in presence of compound 1 (150 µM), single-site binding model): -15.5 ± 0.2 kcal/mol; Kd ([2]; read-out: KD, low affinity binding site, two-sites non-interacting binding model, mean of two experiments): 27.6 ± 1.1 µM; n1 (molar ratio, high affinity site) ([2]; two-sites model): 0.9±0.1; n2 (molar ratio, low affinity site) ([2]; two-sites model): 0.8±0.1
c1ccc(Oc2ccc(-c3cc(N4CCOCC4)on3)cc2)cc1 [compound 6, 4-[3-(4-phenoxyphenyl)isoxazol-5-yl]morpholine] |  | loses all activation capacity; also recorded: n.e. ^c |  | potency EC50 (TbrAK activation) [1]: n.e. ^c
CCc1ccc(-c2cc(C3CCOCC3)[nH]n2)cc1 [compound 3, 3-(4-ethylphenyl)-5-(tetrahydropyran-4-yl)-1H-pyrazole] | 168 µM | 2.5 fold |  | 
Nc1ncnc2c1ncn2[C@@H]1O[C@H](COP(=O)(O)OP(=O)(O)OP(=O)(O)OP(=O)(O)OP(=O)(O)OC[C@H]2O[C@@H](n3cnc4c(N)ncnc43)[C@H](O)[C@@H]2O)[C@@H](O)[C@H]1O [AP5A, P^1,P^5-di(adenosine-5′)-pentaphosphate] |  |  | 50.5±0.2 °C | Δ Tm ([3]; shift versus apo TbrAK (43.1°C), AP5A, adenosine, ATP at 500 µM, compound 1 at 50 µM): 7.4 °C
c1ccc(Oc2ccc(-c3cc(C4CCOCC4)[nH]n3)cc2)cc1 [compound 2, 3-(4-phenoxyphenyl)-5-(tetrahydropyran-4-yl)-1H-pyrazole] | 25.4 µM | 2.0 fold |  | 
Nc1ncnc2c1ncn2[C@@H]1O[C@H](COP(=O)(O)OP(=O)(O)OP(=O)(O)O)[C@@H](O)[C@H]1O [ATP, adenosine triphosphate] |  |  | 42.8±0.1 °C | 
O=[N+]([O-])c1ccc(Oc2ccc(-c3cc(N4CCOCC4)[nH]n3)cc2)cc1 [compound 7, 4-{5-[4-(4-nitrophenoxy)phenyl]-2H-pyrazol-3-yl}morpholine] |  | loses all activation capacity; also recorded: n.e. ^c |  | potency EC50 (TbrAK activation) [1]: n.e.
c1ccc(Oc2ccc(-c3cc(N4CCOCC4)[nH]n3)cc2)cc1 [compound 1, 4-[5-(4-phenoxyphenyl)-2H-pyrazol-3-yl]morpholine] |  | 3.5 fold | 47.9±0.1 °C | IC50 [4]: 1 µM; number of binding sites on TbrAK [5]: two binding sites; cytotoxicity [6]: low cytotoxicity; increase of TbrAK melting point when compound 1 was added ([3]; in presence of adenosine): 0.4 °C; increase of TbrAK melting point when compound 1 was added ([3]; in presence of both adenosine and ATP): 0.7 °C
